Assay results reported in patent US20050079231A1, “Use of ingested sublimed sulfur for the restoration of lactose tolerance in humans with the medical disorder of lactose intolerance” (priority 1999, published 2005).

Key:
[1] = system: patients with positive baseline lactose tolerance tests; assay: Standard lactose tolerance test, baseline vs post-treatment; type: in vivo, humans
Experimental: (§1) From May 1998 through April 2002, 41 patients (22 with clinical and 19 with both clinical and laboratory evidence of severe lactose intolerance) were treated with sublimed sulfur (USP) and a restricted lactose diet for a mean of 3.6 (standard deviation [SD] 3.4) weeks, followed by a regular diet and sublimed sulfur for a mean of 5.8 (SD 5.0) weeks. Quantitative comparisons were made between baseline and post-treatment symptoms in all patients and standard lactose tolerance test results in a subset of 19 patients with positive baseline lactose tolerance tests.

[2] = system: patients with clinical lactose intolerance; assay: Treatment of lactose-intolerant patients with sublimed sulfur: clinical symptoms, baseline vs post-treatment; type: in vivo, humans
Experimental: as §1

[3] = limited course of treatment, conclusion

[S] [sublimed sulfur]
patients who converted from intolerant to tolerant test results ([1]; 9 of 19 patients): 47%
serum glucose level versus baseline in the lactose tolerance test ([1]; at 30 minutes, t=2.81, p=0.01): increased significantly above baseline
serum glucose level versus baseline in the lactose tolerance test ([1]; at 60 minutes, t=2.58, p=0.02): increased significantly above baseline
lactase activity [1, 3]: significant increase
patients who remained asymptomatic after a second course of treatment ([2]; 13 of 17 patients whose symptoms redeveloped): 76%
patients who became clinically asymptomatic after treatment ([2]; 17 of the subset of 19 patients with positive baseline lactose tolerance tests): 89%
patients who remained symptom-free after one course of treatment ([2]; 20 of the remaining 39 patients): 51%
patients who became asymptomatic during treatment ([2]; 39 of 41 patients, sublimed sulfur with restricted lactose diet, then regular diet): 95%
overall relapse rate ([2]; after one course of treatment, confidence interval in brackets): 0.46 (confidence interval 0.32-0.61)
median symptom-free period after discontinuation of sublimed sulfur ([2]; human, in vivo): 76 weeks
lactose tolerance [2, 3]: restored lactose tolerance for prolonged periods
